Results: patent EP0010358A1, “Beta-lactam compounds, processes for their preparation, compositions containing them, intermediates of use in their preparation and methods for the production thereof” (GLAXO GROUP LIMITED, priority 1978, dated 1980)
≈ marks a conversion by molar mass, not a printed value. Like-named read-outs stand apart in the source and are kept apart here.

What was measured:
Test in all cases: Determination of Minimum Inhibitory Concentrations (MIC), agar dilution
Assay type in all cases: cell-based
E. cloacae 1051E = conditions: Enterobacter cloacae
Description: (§1) Serial two-fold dilutions of freshly prepared test solutions were made into Oxoid No. 1 Nutrient agar with or without added enrichment and poured into petri dishes. Plates were inoculated with a multipoint inoculator with inoculum containing approximately 10^5 colony forming units of the organisms shown in the following Table, all of which organisms are clinical isolates. The MIC, quoted in the Table as µg/ml, was read after 18 hours incubation at 37°C as the lowest concentration which inhibited growth.

E. cloacae 1321E = conditions: Enterobacter cloacae
Description: as §1

K. aerogenes 1522E = conditions: Klebsiella aerogenes
Description: as §1

Staph. aureus 853E = conditions: Staphylococcus aureus
Description: as §1

H. influenzae 1184E = conditions: Haemophilus influenzae
Description: as §1

E. coli 851E = conditions: Escherichia coli
Description: as §1

S. marcescens 1324E = conditions: Serratia marcescens
Description: as §1

Micrococcus Sp 1810E = conditions: SP1810E
Description: as §1

[1] = E. cloacae 1051E, clinical isolate, Oxoid No. 1 Nutrient agar, approx. 10^5 colony forming units, 18 hours at 37°C, read-out: MIC
[2] = E. cloacae 1321E, clinical isolate, Oxoid No. 1 Nutrient agar, approx. 10^5 colony forming units, 18 hours at 37°C, read-out: MIC
[3] = K. aerogenes 1522E, clinical isolate, Oxoid No. 1 Nutrient agar, approx. 10^5 colony forming units, 18 hours at 37°C, read-out: MIC
[4] = Staph. aureus 853E, clinical isolate, Oxoid No. 1 Nutrient agar, approx. 10^5 colony forming units, 18 hours at 37°C, read-out: MIC
[5] = H. influenzae 1184E, clinical isolate, Oxoid No. 1 Nutrient agar, approx. 10^5 colony forming units, 18 hours at 37°C, read-out: MIC
[6] = E. coli 851E, clinical isolate, Oxoid No. 1 Nutrient agar, approx. 10^5 colony forming units, 18 hours at 37°C, read-out: MIC
[7] = S. marcescens 1324E, clinical isolate, Oxoid No. 1 Nutrient agar, approx. 10^5 colony forming units, 18 hours at 37°C, read-out: MIC
[8] = Micrococcus Sp 1810E, clinical isolate, Oxoid No. 1 Nutrient agar, approx. 10^5 colony forming units, 18 hours at 37°C, read-out: MIC

MIC (E. cloacae 1051E; [1]) [µg/mL] | MIC (E. cloacae 1321E; [2]) [µg/mL] | MIC (K. aerogenes 1522E; [3]) [µg/mL] | MIC (Staph. aureus 853E; [4]) [µg/mL] | MIC (H. influenzae 1184E; [5]) [µg/mL] | MIC (E. coli 851E; [6]) [µg/mL] | MIC (S. marcescens 1324E; [7]) [µg/mL] | MIC (Micrococcus Sp 1810E; [8]) [µg/mL] | SMILES | MIC (E. cloacae 1051E; 1051E, 18 h) [µg/mL] | MIC (E. cloacae 1321E; 1321E, 18 h) [µg/mL] | MIC (K. aerogenes 1522E; 1522E, 18 h) [µg/mL] | MIC (Staph. aureus 853E; 853E, 18 h) [µg/mL] | MIC (H. influenzae 1184E; 1184E, 18 h) [µg/mL] | MIC (E. coli 851E; 851E, 18 h) [µg/mL] | MIC (S. marcescens 1324E; 1324E, 18 h) [µg/mL] | MIC (Micrococcus Sp 1810E; Micrococcus, 18 h) [µg/mL]
1 (≈ 4.13 µM) | 1 (≈ 4.13 µM) | 2 (≈ 8.26 µM) | 2 (≈ 8.26 µM) | 2 (≈ 8.26 µM) | 1 (≈ 4.13 µM) | 2 (≈ 8.26 µM) | 0.1 (≈ 0.413 µM) | O=CNCCC1=C(C(=O)O)N2C(=O)CC2S1 (racemic) [Example 4, (5RS)-2-(2-Formamidoethyl)pen-2-em-3-carboxylic acid] |  |  |  |  |  |  |  | 
 |  |  |  |  |  |  |  | CC(=O)NCCC1=C(C(=O)[O-])N2C(=O)CC2S1.[K+] (racemic) [Example 7, Potassium (5RS)-2-(2-acetamidoethyl)pen-2-em-3-carboxylate] | 16 | 4 | 8 | 2 | 16 | 8 | 31 | 2
16 | 8 | 8 | 62 | 8 | 8 | 8 | 1 | CNC(=O)NCCC1=C(C(=O)O)N2C(=O)CC2S1 (racemic) [Example 10, Potassium (5RS)-2-(2-N-methylureidoethyl)pen-2-em-3-carboxylate] |  |  |  |  |  |  |  | 
16 | 8 | 2 | 0.2 | 16 | 2 | 8 | 0.2 | O=C(NCCC1=C(C(=O)O)N2C(=O)CC2S1)Nc1ccccc1 (racemic) [Example 11, Potassium (5RS)-2-(2-N-phenylureidoethyl)pen-2-em-3-carboxylate] |  |  |  |  |  |  |  | 
